Measurements: US11723890B2, “Methods of treatment using an mTORC1 modulator” (Navitor Pharmaceuticals, Inc., priority 2019, dated 2023)
“Also recorded” adds a separate entry of the source.

Assays:
[1] = Example 1 Part A: single ascending dose plasma pharmacokinetics; type: in vivo, human
Method: The in-house period was 6 days/5 nights.
Frequent PK sampling was included in the study to evaluate single-dose PK. Part B of the study included assessments designed to assess preliminary efficacy.
Single ascending doses of compound A were assessed in healthy adult males and females in Part A of a two-part, randomized, double-blind, placebo-controlled, first-in-humans Study (see Example 1, Part A).

[2] = system: N-methyl-D-aspartate (NMDA) receptor; test: Nonclinical NMDA receptor modulation / antagonist activity; details: nonclinical studies
Text: Compound A [(S)-2-amino-5,5-difluoro-4,4-dimethylpentanoic acid] is a novel, orally bioavailable, specific, small molecule that activates mTORC1 pathway signaling in the brain, including those centers responsible for mood.
NMDA antagonists, in particular ketamine, are associated with mental status changes that have similarity to psychotic or dissociative symptoms seen in psychiatric disorders.

[3] = system: qEEG and event-related potential (ERP); test: Example 3: qEEG and event-related potential pharmacodynamics; type: in vivo, human; details: healthy males
Text: Pharmacodynamic Endpoints: The primary pharmacodynamic endpoint was the change from baseline in the difference between the compound A group and the placebo group on qEEG parameters, including:
Fractal and oscillatory EEG band amplitudes
Fractal and oscillatory EEG band intra- and interhemispheric coherences
The secondary pharmacodynamic endpoints were the changes from baseline in the difference between the compound A group and the placebo group in ERP parameters, including: • Mismatch negativity (MMN) amplitude and latency • P300a amplitude and latency • P300b amplitude and latency • N100 amplitude and latency • N200 amplitude and latency • P200 amplitude and latency • Auditory steady-state response (ASSR) peak-to-peak amplitude • ASSR event-related spectral perturbation (ERSP) • ASSR inter-trial phase coherence (ITPC) • Mean time scores of qEEG parallel factor analysis (PARAFAC) atoms endpoints
Pharmacodynamics were assessed via qEEG and event-related potential (ERP). Frequent PK sampling was included in the study to evaluate the PK of two doses of compound A given approximately 48 hours apart. A PK/PD model was developed that measures qEEG and ERP changes as a function of plasma concentration of compound A as well as determines whether there are any PK/PD differences between Dose 1 and Dose 2 effects.

[4] = system: healthy volunteers; test: Example 4: blinded multiple ascending dose safety and tolerability study; type: in vivo, human; details: Cohort 1 (800 mg) and Cohort 2 (1600 mg) once daily for 7 days, compound A or placebo (6:2), preliminary
Method: Navitor Pharmaceuticals, Inc. (Navitor) is currently conducting a study to assess the safety, tolerability, and PK of multiple ascending doses of compound A (400 mg, 800 mg, 1600 mg, 2400 mg, and potentially 3000 mg) versus matched placebo in healthy volunteers. This study also includes an assessment of CSF and clinical biomarkers, as well as a cognition test.
The study is planned for 4 cohorts and 1 additional optional cohort. Up to approximately 40 healthy volunteers will be randomly assigned to double-blind treatment. In the initial 4 cohorts, eight (8) subjects will be randomized (3:1; compound A:placebo) in each of the four dosage-level cohorts (800 mg, 1600 mg, 2400 mg, and 400 mg) administered as an oral solution. Within each cohort, six subjects will be randomized to receive compound A and two subjects will be randomized to receive placebo. Each subject randomized will receive compound A or placebo once daily for 7 days. Subjects will dose in the morning and will dose each day at the same time. For cohort 3 (2400 mg), each subject will return to the unit after a minimum 5-day washout to receive an additional single dose of compound A or placebo under fed conditions in Period 2. Assessments of safety, tolerability, and PK as well as exploratory biomarker and clinical measures will occur.
Cohort 1 (800 mg) and Cohort 2 (1600 mg) have been completed. […]

[5] = system: healthy male volunteers; test: Example 3: safety and tolerability of two sequential doses in healthy male volunteers; type: in vivo, human; details: healthy male subjects; two doses 2400 mg 48 hours apart
Method: Safety Endpoints: The safety endpoint was to assess the safety and tolerability of sequential doses of compound A vs. placebo in healthy male volunteers, as assessed by clinical laboratory parameters, physical, neurologic, and psychiatric examinations, vital signs, ECGs, EEGs, and adverse events.
This study was designed to evaluate the safety, tolerability, pharmacodynamics, and pharmacokinetics of two sequential doses of 2400 mg compound A (separated by 2 days), compared with placebo, in 24 healthy adult males (12 receiving compound A, 12 receiving placebo).

[6] = 2400 mg, not evident in placebo group

CC(C)(C[C@H](N)C(=O)O)C(F)F [Compound A, (S)-2-amino-5,5-difluoro-4,4-dimethylpentanoic acid]
CL/F and Vz/F estimates versus dose ([1]; 150 mg to 2400 mg): increased with dose | dose proportionality of Cmax and AUC∞ ([1]; 150 mg to 2400 mg): slightly less than dose-proportional | Tmax ([1]; both sexes, human, healthy volunteers, single oral 150-2400 mg, range among cohorts, post dose, read-out: Median Tmax): 0.5 to 1.5 h | half-life ([1]; both sexes, human, healthy volunteers, single oral 150-2400 mg, range among cohorts, read-out: terminal elimination half-life): 12.7 to 15.9 h | NMDA receptor modulation / antagonist activity [2]: not associated with N-methyl-D-aspartate (NMDA) receptor modulation; also recorded: did not demonstrate NMDA antagonist activity | time to EEG activation after the first and second doses ([3]; 2400 mg Day 1 and Day 3): ≤ 1 h | ASSR high-frequency (harmonic) resonances [3, 6]: increased | peak latency of N100, P200, P300A components in auditory oddball tasks [3, 6]: reduced | changes in low- and high-frequency EEG bands ([3]; 2400 mg, qEEG): dose-dependent decreases in low-frequency EEG bands (delta, theta) and increases in high-frequency EEG bands (gamma) | delta and theta band amplitudes ([3]; 2400 mg, qEEG): significantly decreased | high-frequency band amplitudes (higher beta and gamma bands) ([3]; 2400 mg, qEEG): increased | qEEG band coherences ([3]; 2400 mg, qEEG): increased coherence in alpha, beta, and gamma bands | theta-beta ratios ([3]; 2400 mg, qEEG): decreased | alpha band amplitudes ([3]; 2400 mg, qEEG, within 1 hour after dosing): decreased | neural activation on qEEG ([3]; single dose 2400 mg, versus placebo): rapid and significant neural activation | labs, vital signs or ECG [4]: No clinically significant abnormalities were observed | severity of AEs [4]: mild | deaths, SAEs, discontinuations due to TEAEs, Grade 2 or 3 TEAEs [5]: no deaths or other SAEs, discontinuations due to TEAEs, or moderate (Grade 2) or severe (Grade 3) TEAEs | dissociative effects [5]: No dissociative effects were reported | incidence of TEAEs [5]: 8.3% | incidence of drug-related TEAEs [5]: 0% | proconvulsant activity on safety EEGs [5]: no evidence | safety and tolerability [5]: generally safe and well tolerated | severity of TEAEs [5]: mild (Grade 1)
